Data: the NIST ThermoML archive (doi:10.1016/j.jct.2004.05.006)
Numbers after ± are expanded uncertainties.

Assays:
[1] = excess molar enthalpy (molar enthalpy of mixing); xn = mol fraction of the nth substance listed; settings: 298.15 K, 101.3 kPa, Liquid, Flow calorimetry
[2] = 298.15 K; 101.33 kPa; Liquid

CCCC(C)C [2-methylpentane] + COC(C)(C)C
excess molar enthalpy ([1]; x2 = 0.0532): 0.0375 ± 0.0014 kJ/mol
excess molar enthalpy ([1]; x2 = 0.1063): 0.0893 ± 0.0019 kJ/mol
excess molar enthalpy ([1]; x2 = 0.1589): 0.14 ± 0.0024 kJ/mol
excess molar enthalpy ([1]; x2 = 0.2113): 0.183 ± 0.0028 kJ/mol
excess molar enthalpy ([1]; x2 = 0.2633): 0.219 ± 0.0032 kJ/mol
excess molar enthalpy ([1]; x2 = 0.315): 0.25 ± 0.0035 kJ/mol
excess molar enthalpy ([1]; x2 = 0.3658): 0.272 ± 0.0037 kJ/mol
excess molar enthalpy ([1]; x2 = 0.4165): 0.289 ± 0.0039 kJ/mol
excess molar enthalpy ([1]; x2 = 0.4667): 0.3 ± 0.004 kJ/mol
excess molar enthalpy ([1]; x2 = 0.5174): 0.303 ± 0.004 kJ/mol
excess molar enthalpy ([1]; x2 = 0.5673): 0.297 ± 0.004 kJ/mol
excess molar enthalpy ([1]; x2 = 0.6165): 0.291 ± 0.0039 kJ/mol
excess molar enthalpy ([1]; x2 = 0.6652): 0.276 ± 0.0038 kJ/mol
excess molar enthalpy ([1]; x2 = 0.7143): 0.254 ± 0.0035 kJ/mol
excess molar enthalpy ([1]; x2 = 0.7628): 0.227 ± 0.0033 kJ/mol
excess molar enthalpy ([1]; x2 = 0.81): 0.193 ± 0.0029 kJ/mol
excess molar enthalpy ([1]; x2 = 0.8548): 0.158 ± 0.0026 kJ/mol
excess molar enthalpy ([1]; x2 = 0.906): 0.107 ± 0.0021 kJ/mol
excess molar enthalpy ([1]; x2 = 0.9531): 0.0571 ± 0.0016 kJ/mol

CCCCCCCCCCCC [dodecane]
mass density [2]: 745.38 ± 0.78 kg/m3

COC(C)(C)C [2-methoxy-2-methylpropane]
mass density [2]: 735.69 ± 0.73 kg/m3

CCCCCCCCCC [decane]
mass density [2]: 726.31 ± 0.81 kg/m3

CCCC(C)C [2-methylpentane]
mass density [2]: 649.78 ± 0.94 kg/m3
